Converted amounts (≈) assume the structure as drawn. Read-outs that look alike come from different tables or passages of the source.
What was measured:
Assay type in all cases: cell-based
Spiroplasma citri = test: Activity against Spiroplasma citri (MIC); conditions: for MIC S.Citri (with Cu): Table IVb, with Cu (50 μg/ml Cu^2+); for MIC / MIC with Cu: Table III; for MIC: without added Cu; for MIC with Cu: media containing 50 μg/ml Cu^2+
Text: (§1) The following tables show some activities--expressed as minimum inhibiting concentration (MIC)--of the prepared compounds against various micro-organisms. The compounds are identified by reference to the Example in which they are described. When more than one compound is mentioned in an Example, they are distinguished by a number between parentheses, corresponding to their order of occurrence, for instance: VI (2) refers to the second compound prepared according to Example VI. The term "with Cu" refers to tests conducted in media containing 50 μg/ml Cu^2+.
(§2) The activities of the following compounds, not mentioned in the Examples, were also measured.

Mycoplasma gallisepticum = test: Activity against Mycoplasma gallisepticum (minimum inhibiting concentration); conditions: Table I; for MIC with Cu: media containing 50 μg/ml Cu^2+; for MIC: without added Cu
Text: as §1, §2

M. synoviae = test: Activity against other Mycoplasma species: M. synoviae (MIC); conditions: Table II, with Cu (50 μg/ml Cu^2+)
Text: as §1

M. meleagridis = test: Activity against other Mycoplasma species: M. meleagridis (MIC); conditions: Table II, with Cu (50 μg/ml Cu^2+)
Text: as §1

M. gallisepticum K514 = test: Development of resistance of M. gallisepticum K514 in the presence of copper ions (repeated MIC determinations); conditions: 100 μg/ml Cu^2+; procedure repeated 12 times
Protocol: It was investigated whether M. gallisepticum K514 develops a resistance against the compounds of Examples IX (1), IX (2), VIIIe and XIIb in the presence of copper ions. The MIC's in the presence of 100 μg/ml Cu^2+ were determined in the usual way. The test tubes containing the highest concentration of each compound in which a considerable growth of micro-organism still occurred, were used for inoculation in a next determination. […] Consequently, no resistance is developed.

M. suipneumoniae = test: Activity against other Mycoplasma species: M. suipneumoniae (MIC); conditions: Table II, copper complexes, head 'with Cu' possibly not covering these columns
Text: as §1

M. hyorhinis = test: Activity against other Mycoplasma species: M. hyorhinis (MIC); conditions: Table II, copper complexes, head 'with Cu' possibly not covering these columns
Text: as §1

[1] = tested on: M. Hyorhinis (tylosin resistent); test: Activity against other Mycoplasma species: M. Hyorhinis (tylosin resistent) (MIC); conditions: Table II, copper complexes, head 'with Cu' possibly not covering these columns
Text: as §1

[2] = Mycoplasmoides gallisepticum, read-out: MIC

| Structure (SMILES) | MIC with Cu (Mycoplasma gallisepticum) [µg/mL] | MIC (Mycoplasma gallisepticum; [2]) [µg/mL] | MIC with Cu (Spiroplasma citri) [µg/mL] | MIC (Mycoplasma gallisepticum) [µg/mL] | other results |
| --- | --- | --- | --- | --- | --- |
| Cc1ccc2ccc3ccc(C)nc3c2n1 [A] | – | – | – | – | MIC S.Citri (with Cu) (Spiroplasma citri): 0.03 µg/mL (≈ 0.144 µM) |
| CCCCCCCCCCCc1c(-c2ccccn2)ncc2ccccc12 [D] | – | – | – | – | MIC S.Citri (with Cu) (Spiroplasma citri): 0.8 µg/mL (≈ 2.22 µM) |
| COc1ccc2ccc3ccc(OC)nc3c2n1 [H] | – | – | – | – | MIC S.Citri (with Cu) (Spiroplasma citri): 1.5 µg/mL (≈ 6.24 µM) |
| Cc1cccc(-c2cc3ccccc3c(N)n2)n1.Cc1cccc(-c2cc3ccccc3c(N)n2)n1.O=[N+]([O-])[O-].[Cu+] [IIf, Bis[1-amino-3-(6-methyl-2-pyridyl)isoquinoline]cuprous nitrate] | 0.03 | – | – | – | MIC (Spiroplasma citri): 25 µg/mL |
| Cc1cccc(-c2cc3ccccc3c(N)n2)n1.Cl [IX (1), 1-amino-3-(6-methyl-2-pyridyl)-isoquinoline hydrochloride] | 0.03 | 100 | 0.4 | – | MIC with Cu (M. synoviae): 0.025 µg/mL; MIC with Cu (M. meleagridis): 0.025 µg/mL; Resistance development: change of MIC (M. gallisepticum K514): without a significant increase of the MIC's |
| CCc1cccc(-c2cc3ccccc3c(N)n2)n1.Cl [IX (2), 1-amino-3-(6-ethyl-2-pyridyl) isoquinoline hydrochloride] | 0.02 | – | 0.2 | – | MIC with Cu (M. synoviae): 0.05 µg/mL; MIC with Cu (M. meleagridis): 0.013 µg/mL; Resistance development: change of MIC (M. gallisepticum K514): without a significant increase of the MIC's |
| Cc1ccc2ccc3ccc(C)nc3c2n1.Cc1ccc2ccc3ccc(C)nc3c2n1.O.O=[N+]([O-])[O-].O=[N+]([O-])[O-].[Cu+2] [VI (1), bis(2,9-dimethyl-1,10phenanthroline)cupric nitrate monohydrate] | – | – | – | 0.4 | MIC (M. suipneumoniae): 3 µg/mL; MIC (M. hyorhinis): 3 µg/mL; MIC [1]: 1 µg/mL; MIC (Spiroplasma citri): 50 µg/mL |
| Cc1cccc2cc(-c3ccccn3)nc(N)c12 [VIIIe] | 0.06 | 100 (≈ 425 µM) | 0.1 | – | MIC with Cu (M. synoviae): 0.1 µg/mL; MIC with Cu (M. meleagridis): 0.05 µg/mL; Resistance development: change of MIC (M. gallisepticum K514): without a significant increase of the MIC's |
| CCc1cccc2cc(-c3ccccn3)nc(N)c12 [VIIIf] | 0.05 | > 100 | 0.4 | – | – |
| CCCCCCCCCCc1ccc2c(N)nc(-c3ccccn3)cc2c1 [VIIIg] | 0.06 | 100 (≈ 277 µM) | 0.8 | – | – |
| Nc1nc(-c2ccccn2)cc2c(Cl)cccc12 [VIIIh] | 0.05 | > 100 | 0.4 | – | – |
| CCc1nc(-c2ccccn2)cc2ccccc12 [XIIId, 1-ethyl-3-(2-pyridyl)isoquinoline] | 0.06 | – | 0.2 | – | – |
| Cc1cccc(-c2cc3ccccc3c(C)n2)n1 [XIIb, 1-methyl-3(6-methyl-2-pyridyl)isoquinoline] | 0.03 | – | 0.05 | – | MIC with Cu (M. synoviae): 0.1 µg/mL; MIC with Cu (M. meleagridis): 0.05 µg/mL; Resistance development: change of MIC (M. gallisepticum K514): without a significant increase of the MIC's |
| Nc1nc(-c2ccccn2)cc2ccccc12 [XIIc (1), 1-amino-3-(2-pyridyl)isoquinoline] | 0.4 | > 100 | 0.2 | – | – |
| Cc1nc(-c2ccccn2)cc2ccccc12 [XIIc (3), 1-methyl-3-(2-pyridyl)isoquinoline] | 0.06 | 6 (≈ 27.2 µM) | 0.2 | – | – |
| Cn1ccnc1-c1nc(N)c2ccccc2n1.Cn1ccnc1-c1nc(N)c2ccccc2n1.O=[N+]([O-])[O-].O=[N+]([O-])[O-].[Cu+2] [XVIb (3), Bis[4-amino-2-(1-methyl-1H-imidazole-2-yl)quinazoline]cupric nitrate] | 0.2 | – | – | 12.5 | – |
| Cn1ccnc1-c1cc2ccccc2c(N)n1 [XVa, 1-amino-3-(1-methyl-1H-imidazole-2-yl)isoquinoline] | 1.5 | > 100 | – | – | – |
| Cn1ccnc1-c1cc2ccccc2c(N)n1.Cn1ccnc1-c1cc2ccccc2c(N)n1.O=[N+]([O-])[O-].[Cu+] [XVb (1), Bis[1-amino-3-(1-methyl-1H-imidazole-2-yl)isoquinoline]cuprous nitrate] | 0.8 | – | – | 12.5 | – |
| Cn1ccnc1-c1cc2ccccc2c(N)n1.O=[N+]([O-])[O-].O=[N+]([O-])[O-].[Cu+2] [XVb (2), mono[1-amino-3-(1-methyl-1H-imidazole-2-yl)isoquinoline]cupric nitrate] | 1.5 | – | – | 12.5 | – |
| Cn1ccnc1-c1cc2ccccc2c(N)n1.Cn1ccnc1-c1cc2ccccc2c(N)n1.O=[N+]([O-])[O-].O=[N+]([O-])[O-].[Cu+2] [XVb (3), Bis[1-amino-3-(1-methyl-1H-imidazole-2-yl)isoquinoline]cupric nitrate] | 1.5 | – | – | 12.5 | – |
| Cl.Cl.Nc1nc(-c2ncc[nH]2)nc2ccccc12 [XXa, 4-amino-2(1H-imidazole-2-yl)quinazoline dihydrochloride] | 3 | > 100 | – | – | – |
| Nc1nc(-c2ncc[nH]2)nc2ccccc12.O=[N+]([O-])[O-].O=[N+]([O-])[O-].[Cu+2] [XXb (2), Mono[4-amino-2-(1H-imidazole-2-yl)quinazoline]cupric nitrate] | 1.5 | – | – | 25 | – |
| Nc1nc(-c2ncc[nH]2)nc2ccccc12.Nc1nc(-c2ncc[nH]2)nc2ccccc12.O=[N+]([O-])[O-].O=[N+]([O-])[O-].[Cu+2] [XXb (3), Bis[4-amino-2-(1H-imidazole-2-yl)quinazoline]cupric nitrate] | 6 | – | – | 50 | – |

Reference: US4269834A, “Copper complexes of isoquinazolines” (priority 1977, dated 1981)
